Experiments:
[1] = target: T1, Calpain-1 catalytic subunit (Sus scrofa, UniProt P35750); experiment: Inhibition of mu calpain in porcine erythrocyte
T1 sequence (P35750 whole entry): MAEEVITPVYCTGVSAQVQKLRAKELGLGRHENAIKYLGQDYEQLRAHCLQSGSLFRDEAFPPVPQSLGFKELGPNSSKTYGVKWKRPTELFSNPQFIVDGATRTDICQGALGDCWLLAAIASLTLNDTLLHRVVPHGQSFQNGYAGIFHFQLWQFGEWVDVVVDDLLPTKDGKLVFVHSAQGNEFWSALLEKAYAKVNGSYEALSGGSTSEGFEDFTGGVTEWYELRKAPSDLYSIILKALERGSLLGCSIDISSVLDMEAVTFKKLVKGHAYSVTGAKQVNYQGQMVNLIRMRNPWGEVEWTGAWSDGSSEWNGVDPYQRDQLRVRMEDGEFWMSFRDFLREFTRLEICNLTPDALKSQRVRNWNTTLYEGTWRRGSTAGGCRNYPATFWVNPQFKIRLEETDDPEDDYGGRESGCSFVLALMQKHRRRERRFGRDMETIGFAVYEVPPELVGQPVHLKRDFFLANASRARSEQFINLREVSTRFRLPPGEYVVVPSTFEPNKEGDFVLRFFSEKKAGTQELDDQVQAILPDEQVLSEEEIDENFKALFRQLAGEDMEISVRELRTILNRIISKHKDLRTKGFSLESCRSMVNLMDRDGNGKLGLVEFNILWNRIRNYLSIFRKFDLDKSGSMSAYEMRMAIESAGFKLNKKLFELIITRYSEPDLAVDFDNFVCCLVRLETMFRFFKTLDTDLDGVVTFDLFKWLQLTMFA

Cathepsin B = Cathepsin B (Homo sapiens, UniProt P07858); experiment: Inhibition of cathepsin B from human brain
[2] = Selectivity for porcine mu calpain over human cathepsin B
Sus scrofa = species: Sus scrofa; experiment: Inhibition of mu calpain in porcine erythrocyte at 100 uM

SMILES | Ki [1] [nM] | Ki (Cathepsin B) [nM] | Ratio Ki [2] | inhibition (Sus scrofa) [%]
CC(C)N(CCCc1ccccc1)C(=O)N[C@H](C=O)Cc1ccccc1 | 1160 |  |  | 
O=C[C@H](Cc1ccccc1)NC(=O)N(CCOCc1ccccc1)Cc1ccccc1 | 6650 |  |  | 
CC(C)N(CCc1ccccc1)C(=O)N[C@H](C=O)Cc1ccccc1 | 2350 |  |  | 
CC(C)CN(CCOCc1ccccc1)C(=O)N[C@H](C=O)Cc1ccccc1 | 150 | 33300 | 222 | 
CC(C)N(Cc1ccccc1)C(=O)N[C@H](C=O)Cc1ccccc1 | 6820 |  |  | 
CC(C)CN(CCOCc1ccccc1)C(=O)N[C@H](C=O)C(C)C | 9270 |  |  | 
CC(C)C(C(=O)N[C@H](C=O)Cc1ccccc1)C(=O)OCc1ccccc1 (some centres not stated) | 10 | 20 | 2 | 
CCN(CCOCc1ccccc1)C(=O)N[C@H](C=O)Cc1ccccc1 | 1150 |  |  | 
CC(C)CC(C(=O)N[C@H](C=O)Cc1ccccc1)C(=O)OCc1ccccc1 (some centres not stated) | 15 | 120 | 8 | 
CC(C)NC(=O)N[C@H](C=O)Cc1ccccc1 |  |  |  | 13
CC(C)CN(CCOCc1ccccc1)C(=O)NCC=O | 88700 |  |  | 
CC(C)N(CCCCc1ccccc1)C(=O)N[C@H](C=O)Cc1ccccc1 | 400 |  |  | 
CN(CCOCc1ccccc1)C(=O)N[C@H](C=O)Cc1ccccc1 | 6690 |  |  | 
CC(C)N(CCOCc1ccccc1)C(=O)N[C@H](C=O)Cc1ccccc1 | 230 | 22100 | 96.1 | 

From ChEMBL document CHEMBL1146935, “A novel series of urea-based peptidomimetic calpain inhibitors” (Bioorg Med Chem Lett, 2006)
